# Numbered stars: 1 amine (or outer) side, 2 acyl side, 3 side chain; on linkers, the order of the positions; unused ones are H or OH. Bridge positions count the residues as written; N and C are the ends. Square brackets hold non-standard residues; d marks the D form. Peptide text beside a SMILES is read from it. * marks the point of attachment. X1 = CC[C@H](C)[C@@H](N[*:1])[C@@H](O)CC(=O)O[C@H](C(=O)[C@H](C)C(=O)[*:2])C(C)C; X3 = CC[C@H](C)[C@H](N[*:1])[C@@H](O)CC(=O)O[C@H](C(=O)[C@H](C)C(=O)[*:2])C(C)C; X7 = CCC(C)C(N[*:1])C(O)CC(=O)OC(C(=O)C(C)C(=O)[*:2])C(C)C; NMeY = CN[CH](Cc1ccc(O)cc1)C(=O)O; Stearoyl = CCCCCCCCCCCCCCCCCC(=O)*; aThr = C[C@H](O)[C@H](N)C(=O)O; NMeL = CN[CH](CC(C)C)C(=O)O; dNMeL = CN[C@H](CC(C)C)C(=O)O; Lauroyl = CCCCCCCCCCCC(=O)*; Octanoyl = CCCCCCCC(=O)*; Hexanoyl = CCCCCC(=O)*; Pentanoyl = CCCCC(=O)*; Propionyl = CCC(=O)*; Butyryl = CCCC(=O)*; For = O=C*
# Key:
# [1] = tested on: murine splenocytes (Balb/c and C57B1/6); test: Two-way mixed lymphocyte reaction (MLR) assay; details: Balb/c + C57B1/6 splenocytes, 96 h, [3H]thymidine; for IC50: read-out: two-way mixed lymphocyte reaction (MLR) suppression MLR, IC50;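 for all read-outs here: proliferation read as tritiated thymidine incorporation into newly made DNA after an overnight pulse, expressed as percent of control activity, IC50 interpolated per compound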
# [2] = tested on: concanavalin A-induced lymphoblasts (Con A splenocytes); test: Lymphoblast viability (LbV) assay; details: Con A-stimulated splenocytes (lymphoblasts), MTT
# [3] = tested on: Balb/c splenocytes (resting lymphocytes); test: Lymphocyte viability (LcV) assay; type: cell-based, murine; details: unstimulated Balb/c splenocytes, MTT
# Experimental: Forty two (42) didemnin compounds (see Table 1) were evaluated for cytotoxicity to one of the lymphocyte populations in the MLR (i.e., Balb/c splenocytes). The purpose of the lymphocyte viability assay (LcV) is to measure metabolic activity in lymphocytes after they have been exposed to the compounds for the duration of an under conditions equivalent to the MLR. The inverse of the data yields cytotoxicity information about the compounds on murine lymphocytes. The rationale of using resting cells, in this case unstimulated lymphocytes, to measure cytotoxicity has a strategic importance. In the MLR the heterogenous cell populations are predominantly resting cells when the assay begins.
# Test compounds were prepared in two sets as described above. Splenocytes were prepared as described previously from one murine strain (Balb/c), and a volume of 200 μL of the cell suspension was added to one set of test compounds and control wells.
# Assay plates were incubated as in the MLR and then pulsed overnight 75 μL per well MTT-thiazolyl blue solution (150 μg). The plates were decanted and the resulting insoluble formazan crystals were dissolved in 200 μL of isopropyl alcohol. Absorbance at 570 nm was measured.
# The LcV data were calculated as a percentage of basal metabolic activity, or percent viability, relative to BALB/c control, and an LC50 value was interpolated for each test compound.
SMILES,"two-way mixed lymphocyte reaction (MLR) suppression MLR, IC50 [1]",IC50 [1],"cytotoxicity to lymphocytes LbV, LC50 [2]","cytoxicity to lymphocytes LcV, LC50 [3]","cytoxicity to lymphocytes LcV, LC50 ([3]; highest concentration 10 μg/mL)"
"CC[C@H](C)[C@H]1NC(=O)[C@@H](NC(=O)[C@@H](CC(C)C)N(C)C(=O)[C@@H]2CCCN2C(=O)[C@H](C)O)[C@@H](C)OC(=O)[C@H](Cc2ccc(OC)c(I)c2)N(C)C(=O)[C@@H]2CCCN2C(=O)[C@H](CC(C)C)NC(=O)[C@@H](C)C(=O)[C@H](C(C)C)OC(=O)C[C@@H]1O [Compound 14, Iododidemnin B]",0.81 ng/mL,0.66 nM,0.82 nM,> 8100 nM,> 10 µg/mL
"CC[C@H](C)[C@H]1NC(=O)[C@@H](NC(=O)[C@@H](CC(C)C)N(C)C(=O)[C@@H]2CCCN2C(=O)[C@H](C)O)[C@@H](C)OC(=O)[C@H](CC2CCCCC2)N(C)C(=O)[C@@H]2CCCN2C(=O)[C@H](CC(C)C)NC(=O)[C@@H](C)C(=O)[C@H](C(C)C)OC(=O)C[C@@H]1O [Compound 16, [H6 -N-MePhe^6]Didemnin B]",0.57 ng/mL,0.52 nM,0.73 nM,> 9200 nM,> 10 µg/mL
"CC[C@H](C)[C@@H](NC(=O)[C@@H](NC(=O)[C@@H](CC(C)C)NC)[C@@H](C)O)[C@@H](O)CC(=O)O[C@H](C(=O)[C@H](C)C(=O)N[C@@H](CC(C)C)C(=O)N1CCC[C@H]1C(=O)N(C)[C@@H](Cc1ccc(OC)cc1)C(=O)O)C(C)C [Compound 17, Acyclodidemnin A] (H-[dNMeL]T[X1]LP[NMeY](Me)-OH)",0.54 ng/mL,0.57 nM,240 nM,> 10400 nM,> 10 µg/mL
"CC[C@H](C)[C@H]1NC(=O)[C@@H](NC(=O)[C@@H](CC(C)C)N(C)C(C)=O)[C@@H](C)OC(=O)[C@H](Cc2ccc(OC)cc2)N(C)C(=O)[C@@H]2CCCN2C(=O)[C@H](CC(C)C)NC(=O)[C@@H](C)C(=O)[C@H](C(C)C)OC(=O)C[C@@H]1O [Compound 18, N^α -Acetyldidemnin A] (Ac-[dNMeL]T[X1]LP[NMeY](Me); ester 2-C)",0.027 ng/mL,0.027 nM,0.39 nM,> 10000 nM,> 10 µg/mL
"CCC(=O)N(C)[C@H](CC(C)C)C(=O)N[C@@H]1C(=O)N[C@H]([C@@H](C)CC)[C@@H](O)CC(=O)O[C@@H](C(C)C)C(=O)[C@H](C)C(=O)N[C@@H](CC(C)C)C(=O)N2CCC[C@H]2C(=O)N(C)[C@@H](Cc2ccc(OC)cc2)C(=O)O[C@@H]1C [Compound 19, N^α -Propionyldidemnin A] (Propionyl-[dNMeL]T[X1]LP[NMeY](Me); ester 2-C)",0.37 ng/mL,0.37 nM,0.068 nM,6500 nM,6.50 µg/mL
"CCCC(=O)N(C)C(CC(C)C)C(=O)NC1C(=O)NC(C(C)CC)C(O)CC(=O)OC(C(C)C)C(=O)C(C)C(=O)NC(CC(C)C)C(=O)N2CCCC2C(=O)N(C)C(Cc2ccc(OC)cc2)C(=O)OC1C (stereo not drawn) [Compound 20, N^α -n-Butyryldidemnin A] (Butyryl-[NMeL]T[X7]LP[NMeY](Me); ester 2-C; configuration not given here)",0.30 ng/mL,0.3 nM,0.074 nM,99 nM,
"CCCCC(=O)N(C)[C@H](CC(C)C)C(=O)N[C@@H]1C(=O)N[C@H]([C@@H](C)CC)[C@@H](O)CC(=O)O[C@@H](C(C)C)C(=O)[C@H](C)C(=O)N[C@@H](CC(C)C)C(=O)N2CCC[C@H]2C(=O)N(C)[C@@H](Cc2ccc(OC)cc2)C(=O)O[C@@H]1C [Compound 21, N^α -Pentanoyldidemnin A] (Pentanoyl-[dNMeL]T[X1]LP[NMeY](Me); ester 2-C)",0.48 ng/mL,0.48 nM,0.059 nM,9700 nM,> 10 µg/mL
"CCCCCC(=O)N(C)[C@H](CC(C)C)C(=O)N[C@@H]1C(=O)N[C@H]([C@@H](C)CC)[C@@H](O)CC(=O)O[C@@H](C(C)C)C(=O)[C@H](C)C(=O)N[C@@H](CC(C)C)C(=O)N2CCC[C@H]2C(=O)N(C)[C@@H](Cc2ccc(OC)cc2)C(=O)O[C@@H]1C [Compound 22, N^α -Hexanoyldidemnin A] (Hexanoyl-[dNMeL]T[X1]LP[NMeY](Me); ester 2-C)",0.022 ng/mL,0.021 nM,0.11 nM,9600 nM,> 10 µg/mL
"CCCCCCCC(=O)N(C)[C@H](CC(C)C)C(=O)N[C@@H]1C(=O)N[C@H]([C@@H](C)CC)[C@@H](O)CC(=O)O[C@@H](C(C)C)C(=O)[C@H](C)C(=O)N[C@@H](CC(C)C)C(=O)N2CCC[C@H]2C(=O)N(C)[C@@H](Cc2ccc(OC)cc2)C(=O)O[C@@H]1C [Compound 23, N^α -Octanoyldidemnin A] (Octanoyl-[dNMeL]T[X1]LP[NMeY](Me); ester 2-C)",5.50 ng/mL,5.1 nM,21 nM,> 9350 nM,> 10 µg/mL
"CCCCCCCCCCCC(=O)N(C)[C@H](CC(C)C)C(=O)N[C@@H]1C(=O)N[C@H]([C@@H](C)CC)[C@@H](O)CC(=O)O[C@@H](C(C)C)C(=O)[C@H](C)C(=O)N[C@@H](CC(C)C)C(=O)N2CCC[C@H]2C(=O)N(C)[C@@H](Cc2ccc(OC)cc2)C(=O)O[C@@H]1C [Compound 24, N^α -Dodecanoyldidemnin A] (Lauroyl-[dNMeL]T[X1]LP[NMeY](Me); ester 2-C)",119 ng/mL,106 nM,160 nM,> 8900 nM,> 10 µg/mL
"CCCCCCCCCCCCCCCCCC(=O)N(C)[C@H](CC(C)C)C(=O)N[C@@H]1C(=O)N[C@H]([C@@H](C)CC)[C@@H](O)CC(=O)O[C@@H](C(C)C)C(=O)[C@H](C)C(=O)N[C@@H](CC(C)C)C(=O)N2CCC[C@H]2C(=O)N(C)[C@@H](Cc2ccc(OC)cc2)C(=O)O[C@@H]1C [Compound 25, N^α -Octadecanoyldidemnin A] (Stearoyl-[dNMeL]T[X1]LP[NMeY](Me); ester 2-C)",6040 ng/mL,5110 nM,2700 nM,> 8500 nM,> 10 µg/mL
"CC[C@H](C)[C@@H]1NC(=O)[C@@H](NC(=O)[C@H](CC(C)C)N(C)C=O)[C@H](C)OC(=O)[C@H](Cc2ccc(OC)cc2)N(C)C(=O)[C@@H]2CCCN2C(=O)[C@H](CC(C)C)NC(=O)[C@@H](C)C(=O)[C@H](C(C)C)OC(=O)C[C@@H]1O [Compound 26, Didemnin G] (For-[NMeL][aThr][X3]LP[NMeY](Me); ester 2-C)",0.70 ng/mL,0.72 nM,1.1 nM,> 10000 nM,> 10 µg/mL
"CC[C@H](C)[C@H]1NC(=O)[C@@H](NC(=O)[C@@H](CC(C)C)N(C)C(=O)[C@@H](N)CC(C)C)[C@@H](C)OC(=O)[C@H](Cc2ccc(OC)cc2)N(C)C(=O)[C@@H]2CCCN2C(=O)[C@H](CC(C)C)NC(=O)[C@@H](C)C(=O)[C@H](C(C)C)OC(=O)C[C@@H]1O [Compound 27, N-(L-Leu)Didemnin A] (H-L[dNMeL]T[X1]LP[NMeY](Me); ester 3-C)",0.78 ng/mL,0.74 nM,3.8 nM,> 9500 nM,> 10 µg/mL

# Reference: patent US6156724A, “Uses of didemnins as immunomodulating agents” (priority 1998, dated 2000)
